From patent US5034309A, “Naphthalocyanine derivatives and their use in optical recording medium” (Hitachi Chemical Co., Ltd., priority 1987, dated 1991) come the findings set out here.

A short description of series [1]: electronic spectra in various solvents. In kind it is physicochemical. How it is done: Bis(tri-n-propylsiloxy)silicon-tetra(ndodecylthio)n-aphthalocyanine [illustrative compound (100)] was dissolved in various solvents and its electronic spectra were measured. The electronic spectra in chloroform, tetrahydrofuran, acetone, toluene and hexane are shown in […], FIG. 35, FIG. 36, FIG. 37 and FIG. 38, respectively.
Vanadyl-tetra(t-butyl)-naphthalocyanine synthesized according to the method described in Zhurnal Obshchei Khimii, vol. 42, p. 696 (1972) was dissolved in each of chloroform and benzene and its electronic spectra were measured. The electronic spectra in chloroform and benzene are shown in FIG. 41 and FIG. 42, respectively.

Series [2] in a line: transmission and 5° regular-reflection spectra of spin-coated organic film on glass plate. Format: physicochemical. The conditions noted are these: 2 parts in 98 parts 1,1,2-trichloroethane. How it is done:
A solution composed of 2 parts by weight of bis(tri-n-propylsiloxy)silicon-tetra(n-dodecylthio)naphthalocyanine [illustrative compound (100)] and 98 parts by weight of 1,1,2-trichloroethane was coated on a glass plate by a spin coating method and dried at about 80° C. for about 15 minutes to form an organic film. Transmission spectrum and 5° regular-reflection spectrum of the organic film of the illustrative compound are shown in FIG. 39 and FIG. 40, respectively.
An organic film of the same vanadyl-tetra(t-butyl) naphthalocyanine as used in Comparative Example 1 was formed on a glass plate in the same manner as in Test Example 2, and transmission spectrum (FIG. 43) and 5° regular-reflection spectrum (FIG. 44) of the organic film were measured.
A solution composed of 1 part by weight of each of the naphthalocyanine derivatives (127), (99) and (102) exemplified and 99 parts by weight of tetrahydrofuran was coated on a glass plate by a spin coating method and dried at about 80° C. for about 15 minutes to form an organic film. Transmission spectra and 5° regular-reflection spectra of the thus formed organic films of the naphthalocyanine derivatives are summarized in FIG. 45 and FIG. 46, respectively.

Vanadyl-tetra(t-butyl)-naphthalocyanine: the “change of absorption with concentration” value in series [1] (electronic spectra in chloroform and benzene) was “The higher the concentration, the weaker the absorption near 800 nm and the stronger the absorption at 720 to 730 nm”. In series [1] (electronic spectra in solution), the “dependence of absorption waveform on kind of solvent and concentration” value was “varied depending on the kind of solvent and the conventration of solution”. In addition, in series [2], the “light-absorbing ability in the diode laser region (780 to 830 nm)” value is reported as “did not have very high light-absorbing ability” and the “reflectivity in the diode laser region (780 to 830 nm)” value is on record as not above 20%.
